Source: patent publication US11697648B2, “Fused pyrimidine pyridinone compounds as JAK inhibitors” (THERAVANCE BIOPHARMA R&D IP, LLC, priority 2019, dated 2023)

Columns and labels:
[1] = target: Tyk2 (Homo sapiens (Human), UniProt P29597); test: Biochemical Tyk2 kinase assay (LanthaScreen)
Outline: (§1)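 GST-JAK + GFP-STAT1 peptide, HEPES pH 7.5/MgCl2/EGTA/Brij-35 buffer; cpd preincubation 1 h RT; ATP start, 1 h RT; stop with 10 mM EDTA + 2 nM Tb-anti-pSTAT1; TR-FRET 520/495. 4-parameter IC50 → pKi (Cheng-Prusoff).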

[2] = test system: IL-2 stimulated STAT5 phosphorylation in Tall-1 human T cell line (JAK3); test: Cellular JAK3 potency assay: inhibition of IL-2 stimulated pSTAT5 in Tall-1 T cells; type: cell-based
Outline: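 Tall-1 cells, 45,000 per well, preincubated 1 hour with compound at 37 °C, then stimulated 30 minutes with IL-2 at 300 ng/ml final. pSTAT5 (Tyr694/699) in lysates quantified by AlphaLISA SureFire Ultra. pIC50 derived from inhibition curves, given as mean with SD.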

[3] = target: JAK2 (Homo sapiens (Human), UniProt O60674); test: Biochemical JAK2 kinase assay (LanthaScreen)
Outline: as §1

[4] = target: JAK1 (Homo sapiens (Human), UniProt P23458); test: Biochemical JAK1 kinase assay (LanthaScreen)
Outline: as §1

[5] = target: JAK3 (Homo sapiens (Human), UniProt P52333); test: Biochemical JAK3 kinase assay (LanthaScreen)
Outline: as §1

[6] = IL-2 stimulated pSTAT5, Tall-1 T cells
[7] = selectivity JAK3 over JAK1, difference of pKi

Tyk2, sequence (P29597 whole entry): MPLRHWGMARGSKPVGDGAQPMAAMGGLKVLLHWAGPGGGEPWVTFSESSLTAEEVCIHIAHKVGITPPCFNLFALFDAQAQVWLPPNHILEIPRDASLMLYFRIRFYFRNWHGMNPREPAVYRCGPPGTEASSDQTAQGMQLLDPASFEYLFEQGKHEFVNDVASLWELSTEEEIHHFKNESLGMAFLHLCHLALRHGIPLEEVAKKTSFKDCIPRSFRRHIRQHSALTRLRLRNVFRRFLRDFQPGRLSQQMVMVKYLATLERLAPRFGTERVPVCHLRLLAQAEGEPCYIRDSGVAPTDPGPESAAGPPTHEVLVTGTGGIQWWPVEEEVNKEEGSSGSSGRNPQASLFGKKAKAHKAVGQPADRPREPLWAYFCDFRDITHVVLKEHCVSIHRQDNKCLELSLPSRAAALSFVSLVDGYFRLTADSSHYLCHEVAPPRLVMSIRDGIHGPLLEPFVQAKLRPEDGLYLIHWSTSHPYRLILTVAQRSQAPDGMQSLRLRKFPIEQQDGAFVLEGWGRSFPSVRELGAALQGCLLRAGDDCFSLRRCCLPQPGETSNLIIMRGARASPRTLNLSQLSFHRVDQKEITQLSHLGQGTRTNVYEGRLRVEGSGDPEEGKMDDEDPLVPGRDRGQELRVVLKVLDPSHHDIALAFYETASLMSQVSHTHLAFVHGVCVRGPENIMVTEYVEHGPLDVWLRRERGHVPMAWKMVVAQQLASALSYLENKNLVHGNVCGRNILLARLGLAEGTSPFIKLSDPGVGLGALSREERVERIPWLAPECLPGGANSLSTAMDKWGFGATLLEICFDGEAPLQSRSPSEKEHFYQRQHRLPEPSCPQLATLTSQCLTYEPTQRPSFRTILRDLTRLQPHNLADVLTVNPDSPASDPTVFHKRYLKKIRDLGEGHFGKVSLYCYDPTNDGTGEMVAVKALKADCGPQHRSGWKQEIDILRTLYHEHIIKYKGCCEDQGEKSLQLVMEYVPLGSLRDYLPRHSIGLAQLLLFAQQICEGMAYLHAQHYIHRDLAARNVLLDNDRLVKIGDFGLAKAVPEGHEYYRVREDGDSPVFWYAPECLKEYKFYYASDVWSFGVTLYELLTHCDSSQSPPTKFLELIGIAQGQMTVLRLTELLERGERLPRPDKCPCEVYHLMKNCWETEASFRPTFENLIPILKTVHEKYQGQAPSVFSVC
JAK1, sequence (P23458 whole entry): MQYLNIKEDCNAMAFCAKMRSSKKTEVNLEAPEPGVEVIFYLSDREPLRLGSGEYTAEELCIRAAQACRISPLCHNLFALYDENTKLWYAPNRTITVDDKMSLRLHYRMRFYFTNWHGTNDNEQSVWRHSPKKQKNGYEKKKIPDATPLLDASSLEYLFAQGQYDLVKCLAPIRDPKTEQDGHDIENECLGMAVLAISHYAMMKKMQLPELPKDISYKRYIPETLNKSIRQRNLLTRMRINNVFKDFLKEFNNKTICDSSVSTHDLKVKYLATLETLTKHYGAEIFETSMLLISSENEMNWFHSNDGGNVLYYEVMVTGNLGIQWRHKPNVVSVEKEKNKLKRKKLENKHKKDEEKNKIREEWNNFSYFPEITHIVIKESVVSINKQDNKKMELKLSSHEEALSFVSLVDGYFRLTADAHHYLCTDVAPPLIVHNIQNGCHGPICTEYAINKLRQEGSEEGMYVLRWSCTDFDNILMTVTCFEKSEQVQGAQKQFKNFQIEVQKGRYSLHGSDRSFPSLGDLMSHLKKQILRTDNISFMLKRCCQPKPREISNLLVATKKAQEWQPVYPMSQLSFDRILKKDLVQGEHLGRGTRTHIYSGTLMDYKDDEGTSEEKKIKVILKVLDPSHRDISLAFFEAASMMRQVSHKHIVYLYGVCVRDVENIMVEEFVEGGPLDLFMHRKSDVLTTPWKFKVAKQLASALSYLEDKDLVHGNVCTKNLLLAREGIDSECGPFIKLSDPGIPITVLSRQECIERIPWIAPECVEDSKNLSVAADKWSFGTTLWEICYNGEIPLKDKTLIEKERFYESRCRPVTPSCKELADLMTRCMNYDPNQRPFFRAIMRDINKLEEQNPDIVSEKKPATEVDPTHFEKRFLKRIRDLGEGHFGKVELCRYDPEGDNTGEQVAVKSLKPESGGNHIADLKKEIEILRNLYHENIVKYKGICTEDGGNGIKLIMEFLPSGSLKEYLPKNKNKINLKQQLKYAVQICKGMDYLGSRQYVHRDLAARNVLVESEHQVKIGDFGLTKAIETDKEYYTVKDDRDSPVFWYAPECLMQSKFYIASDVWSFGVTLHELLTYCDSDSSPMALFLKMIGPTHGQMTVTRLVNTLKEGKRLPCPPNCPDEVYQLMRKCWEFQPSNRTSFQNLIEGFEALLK
JAK3, sequence (P52333 whole entry): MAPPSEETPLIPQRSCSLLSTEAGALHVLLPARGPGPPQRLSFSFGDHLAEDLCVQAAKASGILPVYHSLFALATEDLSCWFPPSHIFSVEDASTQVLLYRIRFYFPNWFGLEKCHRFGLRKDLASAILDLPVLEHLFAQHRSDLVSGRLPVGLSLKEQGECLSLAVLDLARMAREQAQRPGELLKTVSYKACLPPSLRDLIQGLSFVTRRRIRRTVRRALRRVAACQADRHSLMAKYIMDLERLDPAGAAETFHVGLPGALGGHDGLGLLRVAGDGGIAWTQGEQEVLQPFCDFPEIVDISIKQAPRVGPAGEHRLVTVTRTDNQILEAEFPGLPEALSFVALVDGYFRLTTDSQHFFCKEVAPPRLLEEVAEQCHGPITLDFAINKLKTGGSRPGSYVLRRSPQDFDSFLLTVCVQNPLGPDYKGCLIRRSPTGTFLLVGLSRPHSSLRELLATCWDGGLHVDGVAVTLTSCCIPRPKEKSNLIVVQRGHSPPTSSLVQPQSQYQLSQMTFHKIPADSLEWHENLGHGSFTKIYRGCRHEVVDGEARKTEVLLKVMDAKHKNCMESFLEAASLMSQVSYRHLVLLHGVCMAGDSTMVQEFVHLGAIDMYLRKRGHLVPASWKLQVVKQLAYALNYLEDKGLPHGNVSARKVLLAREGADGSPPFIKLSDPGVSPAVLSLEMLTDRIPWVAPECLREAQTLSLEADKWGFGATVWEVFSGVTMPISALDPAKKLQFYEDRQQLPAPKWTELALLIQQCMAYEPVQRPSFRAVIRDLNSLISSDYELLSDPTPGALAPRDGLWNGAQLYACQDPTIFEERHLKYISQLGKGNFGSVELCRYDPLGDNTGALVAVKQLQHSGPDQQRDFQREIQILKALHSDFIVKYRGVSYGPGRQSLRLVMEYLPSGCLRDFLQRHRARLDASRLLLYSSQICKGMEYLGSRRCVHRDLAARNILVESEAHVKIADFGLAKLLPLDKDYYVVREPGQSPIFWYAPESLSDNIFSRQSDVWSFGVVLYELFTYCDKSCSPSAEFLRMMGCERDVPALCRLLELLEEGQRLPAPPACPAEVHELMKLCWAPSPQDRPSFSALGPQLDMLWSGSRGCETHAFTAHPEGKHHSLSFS
JAK2, sequence (O60674 whole entry): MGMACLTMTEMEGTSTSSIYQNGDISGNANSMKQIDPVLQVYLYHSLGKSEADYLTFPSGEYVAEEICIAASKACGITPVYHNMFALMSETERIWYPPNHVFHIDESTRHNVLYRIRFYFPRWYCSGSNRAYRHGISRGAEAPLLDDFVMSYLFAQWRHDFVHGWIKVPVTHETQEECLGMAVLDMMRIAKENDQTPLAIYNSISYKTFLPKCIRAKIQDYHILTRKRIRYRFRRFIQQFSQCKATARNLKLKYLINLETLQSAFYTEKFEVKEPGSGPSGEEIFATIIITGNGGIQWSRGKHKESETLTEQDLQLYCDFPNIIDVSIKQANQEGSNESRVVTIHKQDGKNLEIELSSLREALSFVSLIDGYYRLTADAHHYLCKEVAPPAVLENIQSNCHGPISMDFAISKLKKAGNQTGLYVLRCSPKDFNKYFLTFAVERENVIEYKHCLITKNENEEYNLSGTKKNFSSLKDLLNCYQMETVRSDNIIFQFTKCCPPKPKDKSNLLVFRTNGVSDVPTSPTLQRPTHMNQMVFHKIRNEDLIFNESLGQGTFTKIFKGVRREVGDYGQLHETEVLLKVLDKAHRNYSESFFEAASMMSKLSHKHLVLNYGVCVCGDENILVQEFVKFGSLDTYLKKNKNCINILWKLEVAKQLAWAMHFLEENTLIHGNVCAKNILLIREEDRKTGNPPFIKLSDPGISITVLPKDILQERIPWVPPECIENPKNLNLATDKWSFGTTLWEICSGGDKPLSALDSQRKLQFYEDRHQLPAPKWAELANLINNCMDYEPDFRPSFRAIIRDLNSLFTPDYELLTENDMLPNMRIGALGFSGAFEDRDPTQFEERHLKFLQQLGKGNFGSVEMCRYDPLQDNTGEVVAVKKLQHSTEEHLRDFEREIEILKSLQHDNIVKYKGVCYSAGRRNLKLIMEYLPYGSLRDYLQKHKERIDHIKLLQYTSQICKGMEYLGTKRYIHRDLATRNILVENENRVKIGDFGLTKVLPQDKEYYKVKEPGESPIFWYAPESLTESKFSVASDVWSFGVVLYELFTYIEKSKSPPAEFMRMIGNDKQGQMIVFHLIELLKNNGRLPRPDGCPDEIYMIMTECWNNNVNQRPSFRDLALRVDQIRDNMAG

| Compound | Tyk 2 (pKi) [1] | Tall-1 (pIC50) [2, 6] | JAK 2 (pKi) [3] | JAK 1 (pKi) [4] | JAK 3 (pKi) [5] | JAK3 (pKi)-JAK1 (pKi) [5, 7] | Tall-1 (pIC50) ([2]; IL-2 stimulated pSTAT5 in Tall-1 T cells) | JAK3 (pKi)-JAK1 (pKi) ([5]; selectivity, difference of pKi values) |
| --- | --- | --- | --- | --- | --- | --- | --- | --- |
| C=CC(=O)N1CC(CCn2c(=O)ccc3cnc(Nc4cccc(CN5CCN(C(=O)OC)CC5)c4)nc32)C1 [Example 111] | E (E represents a pKi value of 7 or below (Ki of 100 nM or above)) | B (B represents a pC50 value between 6.7 (included) and 7.5 (IC50 between 200 nM and 32 nM)) | E (E represents a pKi value of 7 or below (Ki of 100 nM or above)) | E (E represents a pKi value of 7 or below (Ki of 100 nM or above)) | B (B represents pKi value between 9 and 10 (Ki between 1 nM and 0.1 nM)) | A (A represents a value of 3 or above) | – | – |
| C=CC(=O)N1CC(CCn2c(=O)ccc3cnc(Nc4ccc(N5CCN(C)CC5)c(C#N)c4)nc32)C1 [Example 9, 5-((8-(2-(1-acryloylazetidin-3-yl)ethyl)-7-oxo-7,8-dihydropyrido[2,3-d]pyrimidin-2-yl)amino)-2-(4-methylpiperazin-1-yl)benzonitrile] | E (E represents a pKi value of 7 or below (Ki of 100 nM or above)) | B (B represents a pC50 value between 6.7 (included) and 7.5 (IC50 between 200 nM and 32 nM)) | E (E represents a pKi value of 7 or below (Ki of 100 nM or above)) | E (E represents a pKi value of 7 or below (Ki of 100 nM or above)) | B (B represents pKi value between 9 and 10 (Ki between 1 nM and 0.1 nM)) | A (A represents a value of 3 or above) | – | – |
| C=CC(=O)N1CC(CCn2c(=O)ccc3cnc(Nc4cccc(C(=O)N5CCOCC5)c4)nc32)C1 [Example 65] | E (E represents a pKi value of 7 or below (Ki of 100 nM or above)) | C (C represents a pIC50 value between 6 and 6.7 (IC50 between 1 μM and 200 nM)) | E (E represents a pKi value of 7 or below (Ki of 100 nM or above)) | E (E represents a pKi value of 7 or below (Ki of 100 nM or above)) | B (B represents pKi value between 9 and 10 (Ki between 1 nM and 0.1 nM)) | A (A represents a value of 3 or above) | – | – |
| C=CC(=O)N1CCN(CCn2c(=O)ccc3cnc(Nc4ccc(N5CCN(C)CC5)cc4)nc32)[C@@H](C)C1 [Example 160] | E (E represents a pKi value of 7 or below (Ki of 100 nM or above)) | A (A represents a pIC50 value≥7.5 (IC50≤32 nM)) | E (E represents a pKi value of 7 or below (Ki of 100 nM or above)) | E (E represents a pKi value of 7 or below (Ki of 100 nM or above)) | B (B represents pKi value between 9 and 10 (Ki between 1 nM and 0.1 nM)) | A (A represents a value of 3 or above) | – | – |
| C=CC(=O)N1CCN(CCn2c(=O)ccc3cnc(Nc4cnn(CCOC(C)C)c4)nc32)[C@@H](CC)C1 [Example 220] | E (E represents a pKi value of 7 or below (Ki of 100 nM or above)) | B (B represents a pC50 value between 6.7 (included) and 7.5 (IC50 between 200 nM and 32 nM)) | E (E represents a pKi value of 7 or below (Ki of 100 nM or above)) | E (E represents a pKi value of 7 or below (Ki of 100 nM or above)) | B (B represents pKi value between 9 and 10 (Ki between 1 nM and 0.1 nM)) | A (A represents a value of 3 or above) | – | – |
| CN(C)C/C=C/C(=O)N1CC(CCn2c(=O)ccc3cnc(Nc4ccc(N5CCN(C)CC5)cn4)cc32)C1 [Example 11, (E)-1-(2-(1-(4-(dimethylamino)but-2-enoyl)azetidin-3-yl)ethyl)-7-((5-(4-methylpiperazin-1-yl)pyridin-2-yl)amino)-1,6-naphthyridin-2(1H)-one] | E (E represents a pKi value of 7 or below (Ki of 100 nM or above)) | B (B represents a pC50 value between 6.7 (included) and 7.5 (IC50 between 200 nM and 32 nM)) | E (E represents a pKi value of 7 or below (Ki of 100 nM or above)) | E (E represents a pKi value of 7 or below (Ki of 100 nM or above)) | B (B represents pKi value between 9 and 10 (Ki between 1 nM and 0.1 nM)) | A (A represents a value of 3 or above) | – | – |
| C[C@@H]1CN(c2ccc(Nc3ncc4ccc(=O)n(CCC5CN(C(=O)/C=C/CN(C)C)C5)c4n3)cc2)CCN1C [Example 228] | E (E represents a pKi value of 7 or below (Ki of 100 nM or above)) | C (C represents a pIC50 value between 6 and 6.7 (IC50 between 1 μM and 200 nM)) | E (E represents a pKi value of 7 or below (Ki of 100 nM or above)) | E (E represents a pKi value of 7 or below (Ki of 100 nM or above)) | B (B represents pKi value between 9 and 10 (Ki between 1 nM and 0.1 nM)) | A (A represents a value of 3 or above) | – | – |
| C=CC(=O)N1CCN(CCn2c(=O)ccc3cnc(Nc4ccc(N5CCN(C(C)=O)CC5)c(F)c4)nc32)CC1 [Example 152] | E (E represents a pKi value of 7 or below (Ki of 100 nM or above)) | C (C represents a pIC50 value between 6 and 6.7 (IC50 between 1 μM and 200 nM)) | E (E represents a pKi value of 7 or below (Ki of 100 nM or above)) | E (E represents a pKi value of 7 or below (Ki of 100 nM or above)) | B (B represents pKi value between 9 and 10 (Ki between 1 nM and 0.1 nM)) | A (A represents a value of 3 or above) | – | – |
| C=CC(=O)N1CC(CC)(CCn2c(=O)ccc3cnc(Nc4ccc(N5CCN(C)CC5)cc4)nc32)C1 [Example 217] | E (E represents a pKi value of 7 or below (Ki of 100 nM or above)) | A (A represents a pIC50 value≥7.5 (IC50≤32 nM)) | D (D represents a pKi value between 7 and 8 (Ki between 100 nM and 10 nM)) | E (E represents a pKi value of 7 or below (Ki of 100 nM or above)) | B (B represents pKi value between 9 and 10 (Ki between 1 nM and 0.1 nM)) | A (A represents a value of 3 or above) | – | – |
| C=CC(=O)N1CC(CCn2c(=O)ccc3cnc(Nc4cccc(N5CCN(S(=O)(=O)CC#N)CC5)c4)nc32)C1 [Example 128] | E (E represents a pKi value of 7 or below (Ki of 100 nM or above)) | B (B represents a pC50 value between 6.7 (included) and 7.5 (IC50 between 200 nM and 32 nM)) | E (E represents a pKi value of 7 or below (Ki of 100 nM or above)) | E (E represents a pKi value of 7 or below (Ki of 100 nM or above)) | A (A represents a pKi value≥10 (Ki≤0.1 nM)) | A (A represents a value of 3 or above) | – | – |
| C=CC(=O)N1CCN(CCn2c(=O)ccc3cnc(Nc4cnn(CC)c4)nc32)[C@@H](CC)C1 [Example 242] | E (E represents a pKi value of 7 or below (Ki of 100 nM or above)) | – | E (E represents a pKi value of 7 or below (Ki of 100 nM or above)) | E (E represents a pKi value of 7 or below (Ki of 100 nM or above)) | B (B represents pKi value between 9 and 10 (Ki between 1 nM and 0.1 nM)) | – | B (B represents a pC50 value between 6.7 (included) and 7.5 (IC50 between 200 nM and 32 nM)) | A (A represents a value of 3 or above) |
| C=CC(=O)N1CCN(CCn2c(=O)ccc3cnc(Nc4ccc(N5CCN(S(=O)(=O)C6COC6)CC5)cc4)nc32)CC1 [Example 148] | E (E represents a pKi value of 7 or below (Ki of 100 nM or above)) | C (C represents a pIC50 value between 6 and 6.7 (IC50 between 1 μM and 200 nM)) | E (E represents a pKi value of 7 or below (Ki of 100 nM or above)) | E (E represents a pKi value of 7 or below (Ki of 100 nM or above)) | B (B represents pKi value between 9 and 10 (Ki between 1 nM and 0.1 nM)) | A (A represents a value of 3 or above) | – | – |
| C=CC(=O)N1CC(CCn2c(=O)ccc3cnc(Nc4ccc5[nH]c(=O)oc5c4)nc32)C1 [Example 59] | E (E represents a pKi value of 7 or below (Ki of 100 nM or above)) | C (C represents a pIC50 value between 6 and 6.7 (IC50 between 1 μM and 200 nM)) | E (E represents a pKi value of 7 or below (Ki of 100 nM or above)) | E (E represents a pKi value of 7 or below (Ki of 100 nM or above)) | B (B represents pKi value between 9 and 10 (Ki between 1 nM and 0.1 nM)) | A (A represents a value of 3 or above) | – | – |
| C=CC(=O)N1CC(CCn2c(=O)ccc3cnc(Nc4ccc(N5CCN(C)[C@@H](C)C5)cc4)nc32)C1 [Example 165] | E (E represents a pKi value of 7 or below (Ki of 100 nM or above)) | A (A represents a pIC50 value≥7.5 (IC50≤32 nM)) | E (E represents a pKi value of 7 or below (Ki of 100 nM or above)) | E (E represents a pKi value of 7 or below (Ki of 100 nM or above)) | A (A represents a pKi value≥10 (Ki≤0.1 nM)) | A (A represents a value of 3 or above) | – | – |
